Test results as given in patent publication US11065253B2, “Arylquinazolines” (Merck Patent GmbH, priority 2013, dated 2021).
Read-outs that look alike come from different tables or passages of the source.

How the values were obtained:
Kv11.1 (hERG) channel = Kv11.1 (hERG) channel (Homo sapiens (Human), UniProt Q12809); experiment: Kv11.1 ion channel binding assay (Predictor hERG fluorescence polarisation); settings: class symbol marked with asterisk (*)
Experimental: D) Kv11.1 Ion Channel Binding Assay
Kv11.1 (hERG=human ether a go-go related […]) is a cardiac K^+ channel which should if possible not interact with the test substances. This interaction is determined quantitatively with the aid of the Predictor™ hERG Fluorescence Polarizations (FP) Assays from Life Technologies. In the case of this assay principle, cardiomyocyte cell membranes having a certain proportion of Kv11.1 channels are isolated. A dye-labelled Kv11.1 binding partner gives a high fluorescence polarisation signal by interaction with the Kv11.1. In the case of displacement of the dye, a reduction in the fluorescence polarisation signal occurs.
The assay is carried out automatically as follows: 15 nl of the test substances (highest concentration: 10 mM, 10 concentrations: dilution factors 1:3.16, DMSO) are transferred into an empty microtitre plates having 384 wells by means of an acoustic pipetter. 3 μl of the isolated membranes are subsequently added. Membranes and test substances are incubated at 22° C. for 15 min (+/−5 min). In the next step, the dye-labelled binding partner is added, followed by incubation at 22° C. After incubation for two hours, the measurement of the fluorescence polarisation is carried out on an Envision multimode Reader. Measured raw data are standardised with the aid of Genedata Assay Analyzer. The IC50 and % effect values are calculated in Genedata Condoseo.

[1] = test system: phospho-serine 2056 DNA-PK in HCT116 cells; experiment: DNA-PK phosphorylation at serine 2056 (cellular), ELISA in bleomycin-treated HCT116 cells; type: cell-based; settings: bleomycin-treated HCT116 cells, read-out: IC50 pDNA-PK
In short: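 HCT116 cells were treated with 10 μM bleomycin plus test compounds for six hours at 37 °C. Phospho-Ser2056 DNA-PK measured by chemiluminescent ELISA, normalised to total DNA-PKcs signal; DMSO control as blank.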

[2] = Homo sapiens, HCT-116, phospho-serine 2056 DNA-PK

Kv11.1 (hERG) channel, sequence (Q12809 whole entry): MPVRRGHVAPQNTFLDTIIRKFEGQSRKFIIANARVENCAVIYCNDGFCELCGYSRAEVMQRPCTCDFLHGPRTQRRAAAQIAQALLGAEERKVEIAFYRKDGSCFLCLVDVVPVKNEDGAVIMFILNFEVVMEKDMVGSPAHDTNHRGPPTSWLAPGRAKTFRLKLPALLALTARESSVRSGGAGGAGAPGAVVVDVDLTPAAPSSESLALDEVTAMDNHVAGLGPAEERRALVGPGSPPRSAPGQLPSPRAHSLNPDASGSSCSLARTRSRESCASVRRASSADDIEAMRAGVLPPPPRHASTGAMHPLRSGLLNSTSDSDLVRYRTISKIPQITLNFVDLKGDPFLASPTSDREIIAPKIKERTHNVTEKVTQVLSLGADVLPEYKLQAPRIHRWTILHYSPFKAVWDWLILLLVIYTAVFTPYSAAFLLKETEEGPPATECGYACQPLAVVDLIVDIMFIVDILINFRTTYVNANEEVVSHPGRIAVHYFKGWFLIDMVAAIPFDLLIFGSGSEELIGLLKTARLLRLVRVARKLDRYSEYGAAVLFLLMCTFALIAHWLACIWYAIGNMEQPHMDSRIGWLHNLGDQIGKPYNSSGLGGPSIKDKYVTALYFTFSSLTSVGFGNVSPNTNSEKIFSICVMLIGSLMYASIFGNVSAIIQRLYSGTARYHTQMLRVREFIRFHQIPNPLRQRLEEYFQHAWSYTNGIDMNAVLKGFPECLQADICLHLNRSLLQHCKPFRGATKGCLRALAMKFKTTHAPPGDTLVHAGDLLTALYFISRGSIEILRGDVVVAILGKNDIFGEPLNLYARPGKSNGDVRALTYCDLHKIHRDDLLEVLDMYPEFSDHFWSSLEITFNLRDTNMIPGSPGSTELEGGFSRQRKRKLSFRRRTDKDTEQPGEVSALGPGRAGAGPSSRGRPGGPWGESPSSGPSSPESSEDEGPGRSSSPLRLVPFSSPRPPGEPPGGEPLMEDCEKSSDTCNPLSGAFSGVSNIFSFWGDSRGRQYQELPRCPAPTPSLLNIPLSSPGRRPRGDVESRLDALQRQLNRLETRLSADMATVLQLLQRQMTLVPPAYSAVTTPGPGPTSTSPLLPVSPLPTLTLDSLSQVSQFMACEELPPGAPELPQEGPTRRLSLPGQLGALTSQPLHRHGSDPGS

Row | Compound | IC50 ([1]; phospho-serine 2056 DNA-PK) [µM] | IC50 [1, 2] [µM] | Ki [Kv1.11 hERG] (Kv11.1 (hERG) channel)
1 | [2H]C1([2H])OC([2H])([2H])C([2H])([2H])N(c2ccc3c(-c4cc(C(O)c5nccnc5OC)c(Cl)cc4F)ncnc3c2)C1([2H])[2H] (centres unmarked) [Example 258, [2-Chloro-4-fluoro-5-[7-(2,2,3,3,5,5,6,6-octadeuterio-morpholin-4-yl)-quinazolin-4-yl- ]phenyl]-(3-methoxy-pyrazin-2-yl)-methanol] | < 0.5 | – | A*
2 | COc1nccnc1C(O)c1cc(-c2ncnc3cc(N4CCOCC4)cc(F)c23)c(F)cc1Cl (centres unmarked) [Example 249, [2-Chloro-4-fluoro-5-(5-fluoro-7-morpholin-4-yl-quinazolin-4-yl)-phenyl]-(3-methoxy-pyrazin-2-yl)-methanol] | – | < 0.5 | A*
3 | COc1ccc(C(O)c2ccc(F)c(-c3ncnc4cc(N5CCOCC5)cc(F)c34)c2)nn1 (centres unmarked) [Example 256, [4-Fluoro-3-(5-fluoro-7-morpholin-4-yl-quinazolin-4-yl)-phenyl]-(6-methoxy-pyridazin-3-yl)-methanol] | < 0.5 | – | A*
4 | CNC(=O)C(c1ccc(F)c(-c2ncnc3cc(N4CCOCC4)ccc23)c1)c1ncccc1Cl (centres unmarked) [Example 230, 2-(3-Chloro-pyridin-2-yl)-2-[4-fluoro-3-(7-morpholin-4-yl-quinazolin-4-yl)-phenyl]-N-methyl-acetamide] | 5 to 10 | – | B*
5 | COc1ccc(C(O)c2ccc(F)c(-c3ncnc4cc(N5CCOCC5)cc(F)c34)c2)nn1 (centres unmarked) [Example 255, [4-Fluoro-3-(5-fluoro-7-morpholin-4-yl-quinazolin-4-yl)-phenyl]-(6-methoxy-pyridazin-3-yl)-methanol] | – | < 0.5 | A*
6 | Cc1nccnc1[C@@H](O)c1ccc(F)c(-c2ncnc3cc(N4CCOCC4)cc(F)c23)c1 [Example 251, (S)-[4-fluoro-3-(5-fluoro-7-morpholin-4-ylquinazolin-4-yl)-phenyl]-(3-methyl-pyrazin-2-yl)-methanol] | – | 0.5 to 5 | A*
7 | CNC(=O)C(c1ccc2nccn2n1)c1cc(-c2ncnc3cc(N4CCOCC4)ccc23)c(F)cc1Cl (centres unmarked) [Example 236, 2-[2-Chloro-4-fluoro-5-(7-morpholin-4-yl-quinazolin-4-yl)-phenyl]-2-imidazo-[1,2-b]pyridazin-6-yl-N-methylacetamide] | – | 5 to 10 | A*
8 | Fc1cc(Cl)c(Cc2ccc3nccn3n2)cc1-c1ncnc2cc(N3CCOCC3)ccc12 [Example 235, 4-(4-Chloro-2-fluoro-5-imidazo[1,2-b]-pyridazin-6-ylmethyl-phenyl)-7-morpholin-4-ylquinazoline] | – | < 0.5 | A*
9 | COc1nccnc1C(O)c1ccc(F)c(-c2ncnc3cc(N4CCOCC4)cc(F)c23)c1 (centres unmarked) [Example 252, [4-Fluoro-3-(5-fluoro-7-morpholin-4-yl-quinazolin-4-yl)-phenyl]-(3-methoxy-pyrazin-2-yl)-methanol] | < 0.5 | – | A*
10 | Cc1nccnc1C(O)c1ccc(F)c(-c2ncnc3cc(N4CCOCC4)sc23)c1 (centres unmarked) [Example 245, [4-Fluoro-3-(6-morpholin-4-yl-thieno[3,2-d}-pyrimidin-4-yl)-phenyl]-(3-methyl-pyrazin-2-yl)-methanol] | – | < 0.5 | A*

Now from value to compound, other results behind:

Row | IC50 ([1]; phospho-serine 2056 DNA-PK) [µM] | IC50 [1, 2] [µM] | Compound | Ki [Kv1.11 hERG] (Kv11.1 (hERG) channel)
11 | < 0.5 | – | COc1nccnc1C(O)c1cc(-c2ncnc3cc(N4CCOCC4)cc(F)c23)c(F)cc1Cl (centres unmarked) [Example 266, [2-Chloro-4-fluoro-5-(5-fluoro-7-morpholin-4-yl-quinazolin-4-yl)-phenyl]-(3-methoxy-pyrazin-2-yl)-methanol] | A*
12 | – | < 0.5 | Cc1nccnc1C(O)c1ccc(F)c(-c2ncnc3cc(N4CCOCC4)cc(F)c23)c1 (centres unmarked) [Example 268, [4-Fluoro-3-(5-fluoro-7-morpholin-4-yl-quinazolin-4-yl)-phenyl]-(3-methyl-pyrazin-2-yl)-methanol] | A*
13 | – | 5 to 10 | Cc1nccnc1C(C(N)=O)c1ccc(F)c(-c2ncnc3cc(N4CCOCC4)sc23)c1 (centres unmarked) [Example 270, 2-[4-Fluoro-3-(6-morpholin-4-yl-thieno[3,2-d}-pyrimidin-4-yl)-phenyl]-2-(3-methyl-pyrazin-2-yl)-acetamide] | A*
14 | – | 5 to 10 | OC(c1ccc(F)c(-c2ncnc3cc(N4CCOCC4)ccc23)c1)c1nccn2ncnc12 (centres unmarked) [Example 279, [4-Fluoro-3-(7-morpholin-4-yl-quinazolin-4-yl)-phenyl]-[1,2,4]-triazolo[1,5-a]-pyrazin-8-ylmethanol] | A*
15 | – | 5 to 10 | COc1nnc(Cl)cc1C(O)c1ccc(F)c(-c2ncnc3cc(N4CCOCC4)ccc23)c1 (centres unmarked) [Example 286, (6-Chloro-3-methoxy-pyridazin-4-yl)-[4-fluoro-3-(7-morpholin-4-yl-quinazolin-4-yl)-phenyl]methanol (Ena 1)] | A*
16 | – | 5 to 10 | CN1N=C(C(O)c2cc(-c3ncnc4cc(N5CCOCC5)ccc34)c(F)cc2Cl)CCC1=O (centres unmarked) [Example 288, 6-{[2-Chloro-4-fluoro-5-(7-morpholin-4-yl-quinazolin-4-yl)-phenyl]hydroxy-methyl}-2-methyl-4,5-dihydro-2H-pyridazin-3-one] | A*
17 | – | 0.5 to 5 | COc1ccc(C(C(N)=O)c2cc(-c3ncnc4cc(N5CCOCC5)sc34)c(F)cc2Cl)nn1 (centres unmarked) [Example 272, 2-[2-Chloro-4-fluoro-5-(6-morpholin-4-yl-thieno[3,2-d}-pyrimidin-4-yl)-phenyl]-2-(6-methoxy-pyridazin-3-yl)acetamide] | A*
18 | – | 0.5 to 5 | Cc1nccnc1C(C(N)=O)c1cc(-c2ncnc3cc(N4CCOCC4)sc23)c(F)cc1Cl (centres unmarked) [Example 269, 2-[2-Chloro-4-fluoro-5-(6-morpholin-4-yl-thieno[3,2-d}-pyrimidin-4-yl)-phenyl]-2-(3-methyl-pyrazin-2-yl)-acetamide] | A*
19 | < 0.5 | – | Cc1nccnc1C(O)c1ccc(F)c(-c2ncnc3cc(N4CCOCC4)sc23)c1 (centres unmarked) [Example 265, [4-Fluoro-3-(6-morpholin-4-yl-thieno[3,2-d}-pyrimidin-4-yl)-phenyl]-(3-methyl-pyrazin-2-yl)-methanol] | A*
20 | – | 10 to 30 | NC(=O)C(c1ccc(F)c(-c2ncnc3cc(N4CCOCC4)ccc23)c1)c1nccn2ncnc12 (centres unmarked) [Example 280, 2-[4-Fluoro-3-(7-morpholin-4-yl-quinazolin-4-yl)-phenyl]-2-[1,2,4]-triazolo[1,5-a]-pyrazin-8-yl-acetamide] | A*
21 | < 0.5 | – | COc1ccc(C(O)c2cc(-c3ncnc4cc(N5CCOCC5)cc(F)c34)c(F)cc2Cl)nn1 (centres unmarked) [Example 278, [2-chloro-4-fluoro-5-(5-fluoro-7-morpholin-4-ylquinazolin-4-yl)phenyl]-(6-methoxypyridazin-3-yl)methanol] | A*
22 | – | < 0.5 | Cc1nccnc1C(O)c1cc(-c2ncnc3cc(N4CCOCC4)sc23)c(F)cc1Cl (centres unmarked) [Example 264, [2-Chloro-4-fluoro-5-(6-morpholin-4-yl-thieno[3,2-d}-pyrimidin-4-yl)-phenyl]-(3-methyl-pyrazin-2-yl)-methanol] | A*
23 | < 0.5 | – | COc1nccnc1C(O)c1ccc(F)c(-c2ncnc3cc(N4CCOCC4)cc(F)c23)c1 (centres unmarked) [Example 267, [4-Fluoro-3-(5-fluoro-7-morpholin-4-yl-quinazolin-4-yl)-phenyl]-(3-methoxy-pyrazin-2-yl)-methanol] | A*
24 | < 0.5 | – | [2H]C1([2H])OC([2H])([2H])C([2H])([2H])N(c2ccc3c(-c4cc(C(O)c5nccnc5C)ccc4F)ncnc3c2)C1([2H])[2H] (centres unmarked) [Example 259, [4-Fluoro-3-[7-(2,2,3,3,5,5,6,6-octadeuterio-morpholin-4-yl)quinazolin-4-yl]phenyl]-(3-methyl-pyrazin-2-yl)-methanol] | A*
25 | < 0.5 | – | [2H]C1([2H])OC([2H])([2H])C([2H])([2H])N(c2ccc3c(-c4cc(C(O)c5ccc(OC)nn5)c(Cl)cc4F)ncnc3c2)C1([2H])[2H] (centres unmarked) [Example 262, [2-Chloro-4-fluoro-5-[7-(2,2,3,3,5,5,6,6-octadeuterio-morpholin-4-yl)quinazolin-4-yl]phenyl]-(6-methoxypyridazin-3-yl)methanol] | A*
